Experimental data taken from patent US20190055231A1, “BACE1 INHIBITORS” (Hoffmann-La Roche Inc., priority 2016, published 2019).

How the values were obtained:
hERG channel = hERG channel (Homo sapiens, UniProt Q12809); test: hERG IC20 assay; format: cell-based; settings: human, hERG IC20 assay
Source text: The methods to determine the hERG IC20 values was described in Industrializing electrophysiology: HT automated patch clamp on SyncroPatch® 96 using instant frozen cells. Polonchuk L., Methods Mol Biol. 2014; 1183:81-92. (doi: 10.1007/978-1-4939-1096-0_5.) PMID:25023303
QT prolongation is a cardiovascular risk caused by drug candidates which inhibit the hERG channel (human ether a go-go). A sufficient safety margin between the hERG IC20 value and the free plasma concentration necessary to achieve the envisaged thereapeutic effects is desired (ICH. The nonclinical evaluation of the potential for delayed ventricular repolarization (QT interval prolongation) by human pharmaceuticals (S7B), issued as CPMP/ICH/423/02, adopted by CHMP in May 2005 (http://www.ich.org/cache/compo/276-254-1.html; Redfern W S, Carlsson L, Davis A S, Lynch W G, MacKenzie I, Palethorpe S, Siegl P K, Strang I, Sullivan A T, Wallis R, Camm A J, Hammond T G. Relationships between preclinical cardiac electrophysiology, clinical QT interval prolongation and torsade de pointes for a broad range of drugs: evidence for a provisional safety margin in drug development. Cardiovasc Res. 2003 Apr. 1; 58(1):32-45.)). Reducing the activity against efflux transporters expressed at the blood-brain-barrier such as P-glycoprotein P-gp, might result in reduction of the free plasma concentration by optimizing brain penetration.

[1] = test system: Aβ40 in brain of wild-type mice; test: Mouse acute in vivo model (inhibition of Aβ40 in brain of wild-type mice); settings: 4 h post dose
Procedure: Mouse Acute In Vivo Model (Inhibition of Aβ40 in Brain of Wild-Type Mice)
Single Dose Efficacy in Mice
The mouse single dose efficacy was measured in brain homogenate from C57Bl/6J wildtype mice after DEA extraction as described in H. Hilpert et al., J. Med. Chem. 2013, 56, 3980-3995 (dx.doi.org/10.1021/jm400225m).
Aβ 40 concentration was determined after solid phase extraction as described above and following a modified protocol from Perkin-Elmer with a commercially available antibody against the N-terminal part of rat Aβ (252Q6, Invitrogen cat. No. AMB0062) and an in-house C-terminal specific anti-Aβ40 antibody (BAP-24, Brockhaus M. et al., J. Neuroreport, 1998, 9:1481-1486) bound to acceptor beads (PerkinElmer, Cat. 6772002). 20 μl analyte per well (reconstituted extracts or standard) were loaded to a White Optiplate-96 (Perkin-Elmer, Cat#6005290). Then, a mixture of biotinylated BAP24 antibody (1:2000 diluted at approximately 1 nM final concentration) and antibody 252Q6 bound to AlphaLISA acceptor beads (Perkin-Elmer cat. No. 6772002 (1:100 diluted, 10 ug/mL final concentration) in 1× AlphaLISA buffer (Perkin-Elmer, AL000F) was added. After 1 hour room temperature incubation in the dark, 20 uL of a streptavidin coated donor beads dilution (40 μg/mL) were added and incubated for 30 minutes in the dark. Light emission at 615 nm was recorded using an EnVision AlphaScreen Reader (Perkin-Elmer). Levels of Aβ40 were calculated as percentage of the baseline samples from non-treated animals.
Aβ40 lowering was determined after oral administration in wild-type mice (C57Bl/6J mice, n=3-4) 4 h post dosing. Wild-type mice were used as they have a normal physiological level of APP expression and are thus expected to provide a better physiological model for Aβ-peptide production than APP-transgenic organisms. In vivo efficacy is a key factor for appropriate drug candidates, being more relevant than in vitro activities.

BACE1 [2] = target: T1, BACE1 (Homo sapiens, UniProt P56817); test: BACE1 cell-free assay (BACE1 enzyme assay); format: biochemical
T1 sequence (P56817 46-501): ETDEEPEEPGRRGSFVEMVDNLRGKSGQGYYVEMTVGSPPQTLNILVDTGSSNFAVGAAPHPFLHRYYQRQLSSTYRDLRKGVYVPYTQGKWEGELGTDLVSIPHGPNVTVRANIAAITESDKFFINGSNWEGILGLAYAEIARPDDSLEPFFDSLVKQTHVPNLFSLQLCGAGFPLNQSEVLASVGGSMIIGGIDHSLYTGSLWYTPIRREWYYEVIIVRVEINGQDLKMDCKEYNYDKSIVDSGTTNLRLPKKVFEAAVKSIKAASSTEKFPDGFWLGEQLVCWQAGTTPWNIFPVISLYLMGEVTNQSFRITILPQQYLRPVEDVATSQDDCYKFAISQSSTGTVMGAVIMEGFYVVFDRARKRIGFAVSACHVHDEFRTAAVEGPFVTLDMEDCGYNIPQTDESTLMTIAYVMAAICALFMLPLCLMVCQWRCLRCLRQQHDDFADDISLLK
Source text: BACE1 Cell-Free Assay (BACE1 Enzyme Assay)
(§1) The determination of BACE1 activity can be either measured by using an enzymatic cell-free fluorescence assay (BACE1 cell free, table 2) or by a whole cell assay using HEK293 APP cells (Cellular Aβ-lowering, table 2). Both assays are suitable to determine BACE1 inhibition.

BACE1 [3] = target: T1, BACE1; test: Cellular Aβ-lowering assay (Abeta 40 AlphaLISA, HEK293 APP cells); format: cell-based; parameters: endogenous in cells; host or cells: HEK293 APP cells; settings: HEK293 APP cells, Aβ40 in supernatant; read-out: BACE1 cell act. Aβ40 IC50
Procedure: Cellular Aβ-Lowering Assay:
The Abeta 40 AlphaLISA Assay can be used. The HEK293 APP cells were seeded in 96 well Microtiter plates in cell culture medium (Iscove's, plus 10% (v/v) fetal bovine serum, penicillin/streptomycin) to about 80% confluency and the compounds were added at a 3× concentration in ⅓ volume of culture medium (final DMSO concentration was kept at 1% v/v). After 18-20 hrs incubation at 37° C. and 5% CO2 in a humidified incubator, the culture supernatants were harvested for the determination of AP 40 concentrations using Perkin-Elmer Human Amyloid beta 1-40 (high specificity) Kit (Cat#AL275C).
In a Perkin-Elmer White Optiplate-384 (Cat#6007290), 2 ul culture supernatants were combined with 2 μl of a 10× AlphaLISA Anti-hAP Acceptor beads+Biotinylated Antibody Anti-Aβ 1-40 Mix (50 μg/mL/5 nM). After 1 hour room temperature incubation, 16 μl of a 1.25× preparation of Streptavidin (SA) Donor beads (25 μg/mL) were added and incubated for 30 minutes in the Dark. Light Emission at 615 nm was then recorded using EnVision-Alpha Reader. Levels of AP 40 in the culture supernatants were calculated as percentage of maximum signal (cells treated with 1% DMSO without inhibitor). The IC50 value were calculated using the Excel XLfit software.
Cellular Aβ-Lowering Assay (Cell-Based Assay)
as §1

Human P-gp = Human P-gp (Homo sapiens, UniProt P08183); test: P-gp transport assay (human); format: in vitro ADME; settings: efflux ratio
Sequence of Human P-gp (P08183 whole entry): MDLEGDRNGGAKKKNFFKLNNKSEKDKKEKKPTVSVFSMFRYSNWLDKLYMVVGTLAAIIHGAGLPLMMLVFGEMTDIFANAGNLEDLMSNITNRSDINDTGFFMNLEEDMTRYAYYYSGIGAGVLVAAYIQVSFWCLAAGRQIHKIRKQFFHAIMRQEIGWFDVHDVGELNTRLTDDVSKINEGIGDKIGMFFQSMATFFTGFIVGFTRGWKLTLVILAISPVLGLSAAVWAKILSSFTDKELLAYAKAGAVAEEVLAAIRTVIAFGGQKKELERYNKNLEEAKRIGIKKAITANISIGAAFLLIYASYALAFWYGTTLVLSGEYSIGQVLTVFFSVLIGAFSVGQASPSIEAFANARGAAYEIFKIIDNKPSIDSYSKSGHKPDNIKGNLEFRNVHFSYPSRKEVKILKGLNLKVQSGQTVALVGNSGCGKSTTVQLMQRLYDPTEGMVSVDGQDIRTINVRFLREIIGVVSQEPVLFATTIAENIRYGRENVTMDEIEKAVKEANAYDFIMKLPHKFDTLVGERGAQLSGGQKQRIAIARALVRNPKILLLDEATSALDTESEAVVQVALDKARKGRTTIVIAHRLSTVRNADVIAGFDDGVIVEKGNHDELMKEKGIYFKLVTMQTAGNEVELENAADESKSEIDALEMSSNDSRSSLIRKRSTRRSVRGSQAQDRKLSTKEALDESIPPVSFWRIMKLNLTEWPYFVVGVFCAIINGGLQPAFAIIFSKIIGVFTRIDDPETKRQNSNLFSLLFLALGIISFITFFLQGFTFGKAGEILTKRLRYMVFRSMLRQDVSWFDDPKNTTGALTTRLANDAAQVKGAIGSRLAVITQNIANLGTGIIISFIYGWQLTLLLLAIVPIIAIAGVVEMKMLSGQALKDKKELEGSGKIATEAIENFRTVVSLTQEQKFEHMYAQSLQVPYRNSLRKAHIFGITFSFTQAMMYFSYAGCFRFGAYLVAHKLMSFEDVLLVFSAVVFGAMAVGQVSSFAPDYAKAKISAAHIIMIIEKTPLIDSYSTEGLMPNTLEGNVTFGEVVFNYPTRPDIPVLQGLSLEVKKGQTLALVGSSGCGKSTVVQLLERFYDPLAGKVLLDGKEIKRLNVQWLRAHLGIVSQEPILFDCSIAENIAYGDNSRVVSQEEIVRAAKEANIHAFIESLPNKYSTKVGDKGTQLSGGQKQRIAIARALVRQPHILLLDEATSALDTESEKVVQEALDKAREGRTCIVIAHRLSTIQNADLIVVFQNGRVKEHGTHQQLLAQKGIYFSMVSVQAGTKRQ
Source text: P-Gp Transport Assay (Human and Mouse) (P-Gp Assay)
In the assay of the P-gp efflux ratio ER as described hereinabove, a compound with ER<2.5 is regarded most suitable. In addition, compounds with low hERG channel binding are suitable as well.

Sequence of hERG channel (Q12809 whole entry): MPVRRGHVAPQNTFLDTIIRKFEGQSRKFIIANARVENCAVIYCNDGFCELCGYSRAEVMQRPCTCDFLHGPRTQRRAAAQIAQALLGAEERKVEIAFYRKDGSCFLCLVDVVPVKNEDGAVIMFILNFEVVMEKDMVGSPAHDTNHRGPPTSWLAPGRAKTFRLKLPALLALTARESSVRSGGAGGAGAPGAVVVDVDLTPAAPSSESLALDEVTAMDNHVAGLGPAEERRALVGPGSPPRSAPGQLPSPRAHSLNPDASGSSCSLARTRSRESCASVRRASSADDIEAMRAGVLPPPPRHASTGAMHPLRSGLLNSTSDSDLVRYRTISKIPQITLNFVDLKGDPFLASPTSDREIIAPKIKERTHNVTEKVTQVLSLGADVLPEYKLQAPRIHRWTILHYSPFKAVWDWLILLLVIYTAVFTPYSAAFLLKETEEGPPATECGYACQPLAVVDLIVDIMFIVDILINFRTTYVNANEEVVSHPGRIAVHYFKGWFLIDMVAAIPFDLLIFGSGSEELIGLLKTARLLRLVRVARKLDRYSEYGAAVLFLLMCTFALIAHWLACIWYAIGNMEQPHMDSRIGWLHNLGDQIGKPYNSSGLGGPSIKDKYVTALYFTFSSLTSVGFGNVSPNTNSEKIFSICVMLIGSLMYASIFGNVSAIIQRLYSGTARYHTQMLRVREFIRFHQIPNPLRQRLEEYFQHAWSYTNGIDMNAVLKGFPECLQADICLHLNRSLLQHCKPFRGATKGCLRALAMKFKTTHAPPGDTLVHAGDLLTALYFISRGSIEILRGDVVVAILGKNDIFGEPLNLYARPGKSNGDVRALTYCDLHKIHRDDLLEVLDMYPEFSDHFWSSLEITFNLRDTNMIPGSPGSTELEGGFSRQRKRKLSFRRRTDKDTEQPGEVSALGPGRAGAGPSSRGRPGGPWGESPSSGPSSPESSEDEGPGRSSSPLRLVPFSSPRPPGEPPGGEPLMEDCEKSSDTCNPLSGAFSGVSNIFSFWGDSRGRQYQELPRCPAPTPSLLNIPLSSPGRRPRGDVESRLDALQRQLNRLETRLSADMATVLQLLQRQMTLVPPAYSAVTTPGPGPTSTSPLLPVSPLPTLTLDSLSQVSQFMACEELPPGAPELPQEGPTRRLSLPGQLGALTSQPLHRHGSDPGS

IC50 (BACE1 [2]): 36 nM
IC50 (BACE1 [3]): 15 nM
Human P-gp ER (Human P-gp): 1.7
Structure (SMILES): Cc1cc(C#N)cnc1C(=O)Nc1ccc(F)c([C@@]2(C)N=C(N)O[C@H](C(F)(F)F)[C@@H]2F)n1 [Example 1, N-(6-((4R,5R,6S)-2-amino-5-fluoro-4-methyl-6-(trifluoromethyl)-5,6-dihydro-4H-1,3-oxazin-4-yl)-5-fluoropyridin-2-yl)-5-cyano-3-methylpicolinamide]
IC20 (hERG channel; instant frozen cells (hERG channel; cell line not named)): > 1000 nM
IC20 (hERG channel): > 1000 nM
Brain Aβ-lowering 3 mg/kg ([1]; single p.o. dose 3 mg/kg): 58%
Brain Aβ-lowering 10 mg/kg ([1]; single p.o. dose 10 mg/kg): 92%
